Measured values published in paper PMC10216305, “Introduction of a Polyethylene Glycol Linker Improves Uptake of ^67Cu-NOTA-Conjugated Lactam-Cyclized Alpha-Melanocyte-Stimulating Hormone Peptide in Melanoma” (Cancers, 2023).
One block for each molecule: values may come before it. Positions of bridges follow the written chain, without caps; N, C: chain ends. Non-standard residues stand in square brackets, D forms with d. Residues, ends and D or L forms follow the SMILES beside them. *: point of attachment. NOTA = O=C(O)CN1CCN(CC(=O)O)CCN(CC(=O)*)CC1; Nle = CCCC[C@H](N)C(=O)O

Experiment: in vivo
Parameters: species or system mice
Details: C57, mouse, iv, total radioactivity
Experimental: All animal studies were conducted in compliance with Institutional Animal Care and Use Committee approval. C57 mice were purchased from Charles River Laboratory (Wilmington, NC). B16/F10 melanoma-bearing C57 mice were generated according to our previous publication. Each melanoma-bearing mouse was injected with 0.037 MBq of ^67Cu-NOTA-PEG2Nle-CycMSHhex or ^67Cu-NOTA-GGNle-CycMSHhex via the tail vein. The tumor uptake specificity of ^67Cu-NOTA-PEG2Nle-CycMSHhex and ^67Cu-NOTA-GGNle-CycMSHhex was determined by co-injecting 10 μg (6.07 nmol) of unlabeled NDP-MSH. Mice were sacrificed at 0.5, 2, 4, and 24 h post-injection, and tumors and organs of interest were harvested, weighed, and counted. The blood value was taken as 6.5% of the whole-body weight.

[1] = 0.037 MBq, Kidneys uptake (renal uptake)
[2] = 0.037 MBq, Normal organ uptake, except for kidney uptake
[3] = 0.037 MBq, Uptake ratio Tumor/blood
[4] = 0.037 MBq, Uptake ratio Tumor/kidney
[5] = 0.037 MBq, Uptake ratio Tumor/liver
[6] = 0.037 MBq, Uptake ratio Tumor/lung
[7] = 0.037 MBq, Uptake ratio Tumor/muscle
[8] = 0.037 MBq, Tumor/liver ratio as times the tumor/liver ratio of ^67Cu-NOTA-GGNle-CycMSHhex

tissue uptake dose at 0.5 h (0.037 MBq): 1.46 ± 0.49 %ID
tissue uptake dose at 2 h (0.037 MBq): 1.3 ± 0.27 %ID
tissue uptake dose at 4 h (0.037 MBq): 2.7 ± 0.26 %ID
tissue uptake dose at 24 h (0.037 MBq): 0.94 ± 0.32 %ID
tissue uptake at 0.5 h (0.037 MBq, Blood uptake): 1.22 ± 0.08 %ID/g
tissue uptake at 4 h (0.037 MBq, Blood uptake): 0.06 ± 0.07 %ID/g
tissue uptake at 0.5 h (0.037 MBq, Bone uptake): 0.68 ± 0.1 %ID/g
tissue uptake at 4 h (0.037 MBq, Bone uptake): 0.06 ± 0.06 %ID/g
tissue uptake at 4 h (0.037 MBq, Brain uptake): 0.02 ± 0.03 %ID/g
tissue uptake at 24 h (0.037 MBq, Brain uptake): 0.02 ± 0.02 %ID/g
tissue uptake at 0.5 h [1]: 7.18 ± 2.63 %ID/g
tissue uptake at 2 h [1]: 5.08 ± 1.52 %ID/g
tissue uptake at 4 h [1]: 4.21 ± 0.92 %ID/g
tissue uptake at 24 h [1]: 1.19 ± 0.28 %ID/g
tissue uptake at 0.5 h (0.037 MBq, Liver uptake): 1.15 ± 0.07 %ID/g
tissue uptake at 2 h (0.037 MBq, Liver uptake): 1.49 ± 0.56 %ID/g
tissue uptake at 24 h (0.037 MBq, Liver uptake): 0.82 ± 0.12 %ID/g
tissue uptake at 2 h [2]: < 2 %ID/g
tissue uptake at 2 h (0.037 MBq, Pancreas uptake): 0.12 ± 0.08 %ID/g
tissue uptake at 24 h (0.037 MBq, Pancreas uptake): 0.02 ± 0.01 %ID/g
tissue uptake at 24 h (0.037 MBq, Skin uptake): 0.02 ± 0.01 %ID/g
tissue uptake at 0.5 h (0.037 MBq, Spleen uptake): 0.52 ± 0.32 %ID/g
tissue uptake at 4 h (0.037 MBq, Spleen uptake): 0.12 ± 0.08 %ID/g
tissue uptake at 0.5 h (0.037 MBq, Stomach uptake): 1.53 ± 0.53 %ID/g
tissue uptake at 2 h (0.037 MBq, Stomach uptake): 0.81 ± 0.14 %ID/g
tissue uptake at 0.5 h (0.037 MBq, Tumor uptake): 16.6 ± 1.4 %ID/g
tissue uptake at 4 h (0.037 MBq, Tumor uptake): 8.79 ± 1.31 %ID/g
tissue to tissue ratio at 0.5 h [3]: 13.6
tissue to tissue ratio at 2 h [3]: 389
tissue to tissue ratio at 4 h [3]: 146
tissue to tissue ratio at 24 h [3]: 492
tissue to tissue ratio at 0.5 h [4]: 2.31
tissue to tissue ratio at 2 h [4]: 2.29
tissue to tissue ratio at 4 h [4]: 2.09
tissue to tissue ratio at 24 h [4]: 4.13
tissue to tissue ratio at 0.5 h [5]: 14.4
tissue to tissue ratio at 2 h [5]: 7.83
tissue to tissue ratio at 4 h [5]: 8.62
tissue to tissue ratio at 24 h [5]: 6
tissue to tissue ratio at 0.5 h [6]: 30.7
tissue to tissue ratio at 2 h [6]: 28.4
tissue to tissue ratio at 4 h [6]: 23.8
tissue to tissue ratio at 24 h [6]: 18.2
tissue to tissue ratio at 0.5 h [7]: 32.5
tissue to tissue ratio at 2 h [7]: 292
tissue to tissue ratio at 4 h [7]: 879
tissue to tissue ratio at 24 h [7]: 492
tissue uptake dose at 2 h: 1.48 ± 0.17 %ID
tissue to tissue ratio at 2 h (Uptake ratio Tumor/kidney): 0.19
tissue to tissue ratio at 2 h (Uptake ratio Tumor/liver): 0.92
tissue to tissue ratio at 2 h (Uptake ratio Tumor/lung): 2.44
Structure (SMILES): CCCC[C@H](NC(=O)CNC(=O)CNC(=O)CN1CCN(CC(=O)O)CCN(CC(=O)O)CC1)C(=O)N[C@H]1CC(=O)NCCCC[C@@H](C(N)=O)NC(=O)[C@H](Cc2c[nH]c3ccccc23)NC(=O)[C@H](CCCNC(=N)N)NC(=O)[C@@H](Cc2ccccc2)NC(=O)[C@H](Cc2c[nH]cn2)NC1=O [^67Cu-NOTA-GGNle-CycMSHhex, ^67Cu-NOTA-GlyGlyNle-CycMSHhex, metal not drawn] ({NOTA}-GG[Nle]DH[dF]RWK-NH2; lactam 4-9)

tissue uptake dose at 0.5 h (0.037 MBq): 0.83 ± 0.09 %ID
tissue uptake dose at 2 h (0.037 MBq): 0.95 ± 0.16 %ID
tissue uptake dose at 24 h (0.037 MBq): 0.77 ± 0.12 %ID
tissue uptake at 0.5 h (0.037 MBq, Blood uptake): 0.63 ± 0.26 %ID/g
tissue uptake at 0.5 h (0.037 MBq, Bone uptake): 0.6 ± 0.35 %ID/g
tissue uptake at 0.5 h (0.037 MBq, Brain uptake): 0.04 ± 0.02 %ID/g
tissue uptake at 24 h (0.037 MBq, Brain uptake): 0.04 ± 0.03 %ID/g
tissue uptake at 0.5 h (0.037 MBq, Heart uptake): 0.58 ± 0.18 %ID/g
tissue uptake at 2 h (0.037 MBq, Heart uptake): 0.79 ± 0.06 %ID/g
tissue uptake at 4 h (0.037 MBq, Heart uptake): 0.34 ± 0.08 %ID/g
tissue uptake at 0.5 h [1]: 6.43 ± 1.31 %ID/g
tissue uptake at 2 h [1]: 6.34 ± 1.63 %ID/g
tissue uptake at 4 h [1]: 2.6 ± 0.79 %ID/g
tissue uptake at 0.5 h (0.037 MBq, Liver uptake): 0.95 ± 0.19 %ID/g
tissue uptake at 2 h (0.037 MBq, Liver uptake): 1.09 ± 0.14 %ID/g
tissue uptake at 4 h (0.037 MBq, Liver uptake): 1.41 ± 0.26 %ID/g
tissue uptake at 24 h (0.037 MBq, Liver uptake): 0.84 ± 0.15 %ID/g
tissue uptake at 0.5 h (0.037 MBq, Lung uptake): 0.76 ± 0.16 %ID/g
tissue uptake at 4 h (0.037 MBq, Lung uptake): 0.62 ± 0.18 %ID/g
tissue uptake at 0.5 h (0.037 MBq, Muscle uptake): 0.48 ± 0.12 %ID/g
tissue uptake at 2 h [2]: < 2 %ID/g
tissue uptake at 4 h [2]: < 2.6 %ID/g
tissue uptake at 0.5 h (0.037 MBq, Skin uptake): 1.77 ± 0.28 %ID/g
tissue uptake at 4 h (0.037 MBq, Skin uptake): 0.18 ± 0.07 %ID/g
tissue uptake at 0.5 h (0.037 MBq, Spleen uptake): 0.37 ± 0.1 %ID/g
tissue uptake at 0.5 h (0.037 MBq, Stomach uptake): 1.13 ± 0.36 %ID/g
tissue uptake at 0.5 h (0.037 MBq, Tumor uptake): 8.83 ± 2.19 %ID/g
tissue uptake at 4 h (0.037 MBq, Tumor uptake): 24.1 ± 1.83 %ID/g
tissue uptake at 24 h (0.037 MBq, Tumor uptake): 9.13 ± 1.66 %ID/g
tissue to tissue ratio at 2 h [8]: 3.3
tissue to tissue ratio at 4 h [8]: 2
tissue to tissue ratio at 24 h [8]: 1.8
tissue to tissue ratio at 4 h [3]: 482
tissue to tissue ratio at 24 h [3]: 456
tissue to tissue ratio at 0.5 h [4]: 1.37
tissue to tissue ratio at 2 h [4]: 4.41
tissue to tissue ratio at 4 h [4]: 9.27
tissue to tissue ratio at 24 h [4]: 10.1
tissue to tissue ratio at 0.5 h [5]: 9.29
tissue to tissue ratio at 2 h [5]: 25.7
tissue to tissue ratio at 4 h [5]: 17.1
tissue to tissue ratio at 0.5 h [6]: 11.6
tissue to tissue ratio at 2 h [6]: 52.8
tissue to tissue ratio at 4 h [6]: 38.9
tissue to tissue ratio at 24 h [6]: 26.1
tissue to tissue ratio at 0.5 h [7]: 18.4
tissue to tissue ratio at 2 h [7]: 34.5
tissue to tissue ratio at 4 h [7]: 803
tissue to tissue ratio at 24 h [7]: 913
tissue uptake dose at 2 h: 2.09 ± 0.96 %ID
tissue to tissue ratio at 2 h (Uptake ratio Tumor/kidney): 0.34
tissue to tissue ratio at 2 h (Uptake ratio Tumor/liver): 0.98
tissue to tissue ratio at 2 h (Uptake ratio Tumor/lung): 2.44
tissue to tissue ratio at 2 h (Uptake ratio Tumor/muscle): 166
Structure (SMILES): CCCC[C@H](NC(=O)COCCOCCNC(=O)CN1CCN(CC(=O)O)CCN(CC(=O)O)CC1)C(=O)N[C@H]1CC(=O)NCCCC[C@@H](C(N)=O)NC(=O)[C@H](Cc2c[nH]c3ccccc23)NC(=O)[C@H](CCCNC(=N)N)NC(=O)[C@@H](Cc2ccccc2)NC(=O)[C@H](Cc2c[nH]cn2)NC1=O [^67Cu-NOTA-PEG2Nle-CycMSHhex, ^67Cu-1,4,7-triazacyclononane-1,4,7-triyl-triacetic acid-polyethylene glycol-Nle-c[Asp-His-DPhe-Arg-Trp-Lys]-CONH2, metal not drawn]
